# Reference: patent US20240287154A1, “MC3R AGONIST PEPTIDES” (The Regents of the University of Michigan, priority 2021, published 2024)
# Non-standard residues stand in square brackets, D forms with d. Residues, ends and D or L forms follow the SMILES beside them. Phe(4-Br) = N[C@@H](Cc1ccc(Br)cc1)C(=O)O; NMeY = CN[C@@H](Cc1ccc(O)cc1)C(=O)O; Nle = CCCC[C@H](N)C(=O)O; dAbu = CC[C@@H](N)C(=O)O
# Columns and labels:
# human MC3R = biological target: T1, human MC3R (Homo sapiens, UniProt P41968); test: Intracellular cAMP levels in live cells, MC3R agonist activity; format: cell-based; conditions: cAMP split-luciferase reporter cell line stably expressing human MC3R; direct agonist effect, measurement window 1
# T1 construct: expressed in transfected cells
# Experimental: The stable cell lines were grown and maintained in selection media consisting of Dulbecco's modified Eagle media (DMEM) with 4.5 g/l D-glucose, and 4 mM L-glutamine (Thermo Fisher Scientific, Waltham, MA), supplemented with 10% fetal bovine serum, 100 units/ml penicillin, 100 μg/ml streptomycin, 2.5 μg/ml amphotericin B, 200 μg/ml hygromycin B (for positive selection of the GScAMP22f luciferase reporter), and Geneticin™ (G418) 700 μg/ml (for MC3R or MC4R selection). Actual serum concentration during the assay is estimated to be about 1%. Cell line identity is routinely verified by qPCR and MC3R- and MC4R-specific oligonucleotides.
# The assay for the determination of the CAMP response in live cells was described previously. […] Ccells were seeded at a density of 20,000 cells per well using 384-well poly-D lysine-coated, clear bottom, and black-wall assay plates (Corning Inc. Corning, NJ). Cells were allowed to attach to the plates for 18 to 24 h after which growth media was removed and 20 ul of 4% D-luciferin (Promega) in CO2 independent, serum-free medium (Thermo Fisher Scientific) was added to each well. […] Intracellular cAMP levels were measured using an FDSS 7000EX Functional Drug Screening System (Hamamatsu Photonics, Hamamatsu, Japan) in the Center for Chemical Genomics at the Life Sciences Institute. This instrument allowed the in-line addition of test-peptides and receptor agonists while simultaneously acquiring the luminescence signal from live cells. […] A submaximal forskolin (20 μM) concentration was also included to serve as a normalization reference to account for cell number variations and differences in assay transducer efficiency between cell lines.
# With this set up it was possible to evaluate the direct agonist effect of the test-peptides on the MC3R and MC4R cell lines during measurement window 1, while the antagonist profile in the presence of EC90 α-MSH was determined on measurement window 2. […] EC50 or IC50 potency values were determined by non-linear regression by fitting the data to a sigmoid four-parameter variable slope model using the GraphPad Prism version 8.4 software package (San Diego CA).
# human MC4R = human MC4R (Homo sapiens, UniProt P32245); test: Intracellular cAMP levels in live cells, MC3R selectivity relative to MC4R; format: cell-based; conditions: cAMP assays in human MC3R and human MC4R stable cell lines
# in vitro = test: in vitro
# Experimental: Pooled mouse plasma was prepared and stored at −80° C. prior to use. 396 μL mouse plasma was incubated at 37° C. for 5 minutes in 1.5 mL microcentrifuge tubes. 4 μL of 100 μM test or control compound/peptide was added to each tube and incubated for 0.5, 15, 30, 60, 120, or 240 minutes. An aliquot of 40 μL of each reaction was stopped by the addition of 4 volume of cold acetonitrile containing 200 ng/mL of Setmelanotide as an internal standard (IS). The incubation solution was centrifuged at 3500 rpm for 10 minutes to precipitate protein. The supernatant was used for LC/MS/MS analysis. The natural log peak area ratio (compound peak […] area/internal standard peak area) was plotted against time and the gradient of the line determined.
# T1 sequence (P41968 whole entry): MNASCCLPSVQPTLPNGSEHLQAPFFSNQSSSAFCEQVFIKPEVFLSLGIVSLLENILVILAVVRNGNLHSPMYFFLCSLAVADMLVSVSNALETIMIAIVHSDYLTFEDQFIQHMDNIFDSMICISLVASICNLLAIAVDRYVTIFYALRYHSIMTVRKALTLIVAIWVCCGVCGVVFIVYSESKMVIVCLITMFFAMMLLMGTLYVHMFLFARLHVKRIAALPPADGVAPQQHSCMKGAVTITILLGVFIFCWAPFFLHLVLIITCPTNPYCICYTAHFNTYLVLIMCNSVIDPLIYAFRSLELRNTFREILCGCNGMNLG
# Chain of human MC4R (P32245 whole entry): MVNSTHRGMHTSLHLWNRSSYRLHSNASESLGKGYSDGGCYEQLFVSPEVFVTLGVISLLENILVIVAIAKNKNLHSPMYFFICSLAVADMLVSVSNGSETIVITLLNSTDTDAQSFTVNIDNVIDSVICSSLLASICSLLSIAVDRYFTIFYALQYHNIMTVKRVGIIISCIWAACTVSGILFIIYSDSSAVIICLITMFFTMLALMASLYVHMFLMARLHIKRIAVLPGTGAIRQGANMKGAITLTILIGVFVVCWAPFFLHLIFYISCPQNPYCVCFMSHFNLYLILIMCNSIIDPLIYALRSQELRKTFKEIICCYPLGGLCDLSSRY
SMILES,EC50 (human MC3R),MC3R selectivity (relative to MC4R) (human MC4R),other results
"CC(C)[C@H](NC(=O)[C@@H](N)Cc1ccc(O)cc1)C(=O)N[C@@H](CCC(=O)O)C(=O)N[C@H](C)C(=O)N[C@@H](Cc1c[nH]cn1)C(=O)N[C@H](Cc1ccccc1)C(=O)N[C@@H](CCCNC(=N)N)C(=O)N[C@H](Cc1c[nH]c2ccccc12)C(=O)N[C@@H](CC(=O)O)C(=O)N[C@@H](CCCNC(=N)N)C(=O)N[C@@H](Cc1ccccc1)C(=O)NCC(=O)O [CTX-1106, Tyr-Val-Glu-D-Ala-His-D-Phe-Arg-D-Trp-Asp-Arg-Phe-Gly] (H-YVE[dA]H[dF]R[dW]DRFG-OH)",5.8 nM,120,
"CCCC[C@H](NC(=O)[C@@H](NC(=O)[C@@H](N)Cc1ccc(O)cc1)C(C)C)C(=O)N[C@H](C)C(=O)N[C@@H](Cc1c[nH]cn1)C(=O)N[C@H](Cc1ccccc1)C(=O)N[C@@H](CCCNC(=N)N)C(=O)N[C@H](Cc1c[nH]c2ccccc12)C(=O)N[C@@H](CC(=O)O)C(N)=O [CTX-1109, Tyr-Val-Nle-D-Ala-His-D-Phe-Arg-D-Trp-Asp] (H-YV[Nle][dA]H[dF]R[dW]D-NH2)",13.1 nM,10.6,
"CCCC[C@H](NC(=O)[C@@H](NC(=O)[C@@H](N)Cc1ccc(O)cc1)C(C)C)C(=O)N[C@H](C)C(=O)N[C@@H](Cc1c[nH]cn1)C(=O)N[C@@H](Cc1ccccc1)C(=O)N[C@@H](CCCNC(=N)N)C(=O)N[C@H](Cc1c[nH]c2ccccc12)C(=O)N[C@@H](CC(=O)O)C(=O)N[C@@H](CCCNC(=N)N)C(=O)N[C@@H](Cc1ccccc1)C(=O)NCC(N)=O [CTX-1118, Tyr-Val-Nle-D-Ala-His-Phe-Arg-D-Trp-Asp-Arg-Phe-Gly] (H-YV[Nle][dA]HFR[dW]DRFG-NH2)",1.2 nM,59,
"CCCC[C@H](NC(=O)[C@@H](NC(=O)[C@@H](N)Cc1ccc(O)cc1)C(C)C)C(=O)N[C@H](C)C(=O)N[C@@H](Cc1c[nH]cn1)C(=O)N[C@@H](Cc1ccccc1)C(=O)N[C@@H](CCCNC(=N)N)C(=O)N[C@H](Cc1c[nH]c2ccccc12)C(=O)N[C@@H](CC(=O)O)C(=O)N[C@@H](CCCNC(=N)N)C(=O)N[C@@H](Cc1ccccc1)C(N)=O [CTX-1119, Tyr-Val-Nle-D-Ala-His-Phe-Arg-D-Trp-Asp-Arg-Phe] (H-YV[Nle][dA]HFR[dW]DRF-NH2)",1.9 nM,24,
"CCCC[C@H](NC(C)=O)C(=O)N[C@H](C)C(=O)N[C@@H](Cc1c[nH]cn1)C(=O)N[C@@H](Cc1ccccc1)C(=O)N[C@@H](CCCNC(=N)N)C(=O)N[C@H](Cc1c[nH]c2ccccc12)C(=O)N[C@@H](CC(=O)O)C(=O)N[C@@H](CCCNC(=N)N)C(=O)N[C@@H](Cc1ccccc1)C(=O)NCC(=O)O [CTX-1122, Nle-D-Ala-His-Phe-Arg-D-Trp-Asp-Arg-Phe-Gly] (Ac-[Nle][dA]HFR[dW]DRFG-OH)",1.2 nM,"7,703",
"CCCC[C@H](NC(=O)[C@@H](NC(=O)[C@H](Cc1ccc(O)cc1)NC)C(C)C)C(=O)N[C@H](C)C(=O)N[C@@H](Cc1c[nH]cn1)C(=O)N[C@@H](Cc1ccccc1)C(=O)N[C@@H](CCCNC(=N)N)C(=O)N[C@H](Cc1c[nH]c2ccccc12)C(=O)N[C@@H](CC(=O)O)C(=O)N[C@@H](CCCNC(=N)N)C(=O)N[C@@H](Cc1ccccc1)C(=O)NCC(=O)O [CTX-1124, NMe-Tyr-Val-Nle-D-Ala-His-Phe-Arg-D-Trp-Asp-Arg-Phe-Gly] (H-[NMeY]V[Nle][dA]HFR[dW]DRFG-OH)",1.7 nM,69,
"CCCC[C@H](NC(=O)[C@@H](NC(=O)[C@@H](N)Cc1ccc(O)cc1)C(C)C)C(=O)N[C@@H](C)C(=O)N[C@@H](Cc1c[nH]cn1)C(=O)N[C@@H](Cc1ccccc1)C(=O)N[C@@H](CCCNC(=N)N)C(=O)N[C@H](Cc1c[nH]c2ccccc12)C(=O)N[C@@H](CC(=O)O)C(N)=O [CTX-1129, Tyr-Val-Nle-Ala-His-Phe-Arg-D-Trp-Asp] (H-YV[Nle]AHFR[dW]D-NH2)",1.2 nM,7.5,
"CCCC[C@H](NC(=O)[C@@H](NC(=O)[C@@H](N)Cc1ccc(O)cc1)C(C)C)C(=O)N[C@H](CC)C(=O)N[C@@H](Cc1c[nH]cn1)C(=O)N[C@@H](Cc1ccccc1)C(=O)N[C@@H](CCCNC(=N)N)C(=O)N[C@H](Cc1c[nH]c2ccccc12)C(=O)N[C@@H](CC(=O)O)C(N)=O [CTX-1131, Tyr-Val-Nle-D-Abu-His-Phe-Arg-D-Trp-Asp] (H-YV[Nle][dAbu]HFR[dW]D-NH2)",6.6 nM,65,
"CCCC[C@H](NC(=O)[C@@H](NC(=O)[C@@H](N)Cc1ccc(O)cc1)C(C)C)C(=O)N[C@H](Cc1ccccc1)C(=O)N[C@@H](Cc1c[nH]cn1)C(=O)N[C@@H](Cc1ccccc1)C(=O)N[C@@H](CCCNC(=N)N)C(=O)N[C@H](Cc1c[nH]c2ccccc12)C(=O)N[C@@H](CC(=O)O)C(N)=O [CTX-1132, Tyr-Val-Nle-D-Phe-His-Phe-Arg-D-Trp-Asp] (H-YV[Nle][dF]HFR[dW]D-NH2)",3.9 nM,6.8,
"CCCC[C@H](NC(=O)[C@@H](NC(=O)[C@@H](N)Cc1ccc(O)cc1)C(C)C)C(=O)N[C@H](Cc1ccccc1)C(=O)N[C@@H](Cc1c[nH]cn1)C(=O)N[C@@H](Cc1ccccc1)C(=O)N[C@@H](CCCNC(=N)N)C(=O)N[C@H](Cc1c[nH]c2ccccc12)C(=O)N[C@@H](CC(=O)O)C(=O)N[C@@H](CCCNC(=N)N)C(=O)N[C@@H](Cc1ccccc1)C(=O)NCC(=O)O [CTX-1136, Tyr-Val-Nle-D-Phe-His-Phe-Arg-D-Trp-Asp-Arg-Phe-Gly] (H-YV[Nle][dF]HFR[dW]DRFG-OH)",1.9 nM,37,
"CCCC[C@H](NC(C)=O)C(=O)N[C@H](CC)C(=O)N[C@@H](Cc1c[nH]cn1)C(=O)N[C@@H](Cc1ccccc1)C(=O)N[C@@H](CCCNC(=N)N)C(=O)N[C@H](Cc1c[nH]c2ccccc12)C(=O)N[C@@H](CC(=O)O)C(=O)N[C@@H](CCCNC(=N)N)C(=O)N[C@@H](Cc1ccccc1)C(=O)NCC(=O)O [CTX-1144, Nle-D-Abu-His-Phe-Arg-D-Trp-Asp-Arg-Phe-Gly] (Ac-[Nle][dAbu]HFR[dW]DRFG-OH)",6.6 nM,"2,633",
"CCCC[C@H](NC(C)=O)C(=O)N[C@H](C)C(=O)N[C@@H](Cc1c[nH]cn1)C(=O)N[C@@H](Cc1ccccc1)C(=O)N[C@@H](CCCNC(=N)N)C(=O)N[C@H](Cc1c[nH]c2ccccc12)C(=O)N[C@@H](CC(=O)O)C(=O)N[C@H](CCCNC(=N)N)C(=O)N[C@@H](Cc1ccccc1)C(=O)NCC(=O)O [CTX-1146, Nle-D-Ala-His-Phe-Arg-D-Trp-Asp-D-Arg-Phe-Gly] (Ac-[Nle][dA]HFR[dW]D[dR]FG-OH)",170 nM,,
"CCCC[C@H](NC(=O)CNC(=O)COCCOCCNC(=O)CNC(=O)CCc1ccc(I)cc1)C(=O)N[C@H](C)C(=O)N[C@@H](Cc1c[nH]cn1)C(=O)N[C@@H](Cc1ccccc1)C(=O)N[C@@H](CCCNC(=N)N)C(=O)N[C@H](Cc1c[nH]c2ccccc12)C(=O)N[C@@H](CC(=O)O)C(=O)N[C@@H](CCCNC(=N)N)C(=O)N[C@@H](Cc1ccccc1)C(=O)NCC(=O)O [CTX-1148, Gly-Nle-D-Ala-His-Phe-Arg-D-Trp-Asp-Arg-Phe-Gly]",1.5 nM,1197,
"CCCC[C@H](NC(=O)[C@@H](NC(=O)[C@@H](N)Cc1ccc(O)cc1)C(C)C)C(=O)N[C@H](C)C(=O)N[C@@H](Cc1c[nH]cn1)C(=O)N[C@@H](Cc1ccc(Br)cc1)C(=O)N[C@@H](CCCNC(=N)N)C(=O)N[C@H](Cc1c[nH]c2ccccc12)C(=O)N[C@@H](CC(=O)O)C(=O)N[C@@H](CCCNC(=N)N)C(=O)N[C@@H](Cc1ccccc1)C(=O)NCC(=O)O [CTX-2120, Tyr-Val-Nle-D-Ala-His-Phe(4-Br)-Arg-D-Trp-Asp-Arg-Phe-Gly] (H-YV[Nle][dA]H[Phe(4-Br)]R[dW]DRFG-OH)",,173,"half-life at 1 µM (in vitro; mouse, plasma): 2.01 min; remaining at 5 min, 1 µM (in vitro; mouse, plasma): 17.9%; remaining at 0.25 h, 1 µM (in vitro; mouse, plasma): 0.78%; remaining at 0.5 h, 1 µM (in vitro; mouse, plasma): 0.13%; remaining at 1 h, 1 µM (in vitro; mouse, plasma): 0.09%; Mouse Plasma Stability, time point 0 min (in vitro; pooled mouse plasma, 37° C., 0 min): 100%"
